Drawing on patent US20140357713A1, “ANTIMICROBIAL COMPOUNDS AND METHODS OF USE” (NexMed Holdings, Inc., priority 2012, published 2014), this text covers melting point for 2 molecules.

Structures can show the parent of a compound that is named as a salt.

For orientation: melting point means the temperature, or range, at which the solid turns liquid.

`CCCCCCCCCCCCOC(=O)C(C)(C)N(C)C` (as salt: hydrochloride) [Nex-58, Dodecyl 2-(dimethylamino)-2-methylpropanoate hydrochloride]: the melting point lay within 68 to 74 °C.

With `CCCCCCCCCCCCOC(=O)C(C)N(C)C` (centres unmarked) (as salt: salt) [Nex-46, Dodecyl 2-(dimethylamino)propanoate 2-hydroxyethanesulfonate], the melting point was 58 to 63 °C.
